Laboratory results published in patent publication US20070010669A1, “Novel class of cytodifferentiating agents and histone deacetylase inhibitors, and methods of use thereof” (priority 1999, published 2007).
Where two headings read alike, the source gives them in different places.

Experiments:
HDAC = HDAC (Homo sapiens, UniProt Q13547); experiment: Inhibition of the enzyme HDAC (Examples 12 and 13); assay type: biochemical; details: read-out: ID50 as inhibitor of HDAC
[1] = target: T1, affinity purified human epitope-tagged (Flag) HDAC1 (Homo sapiens, UniProt Q13547); experiment: Histone Deacetylase (HDAC) enzymatic activity, [3H]acetyl-labeled histone substrate; assay type: biochemical; parameters: Flag
T1 sequence (Q13547 whole entry): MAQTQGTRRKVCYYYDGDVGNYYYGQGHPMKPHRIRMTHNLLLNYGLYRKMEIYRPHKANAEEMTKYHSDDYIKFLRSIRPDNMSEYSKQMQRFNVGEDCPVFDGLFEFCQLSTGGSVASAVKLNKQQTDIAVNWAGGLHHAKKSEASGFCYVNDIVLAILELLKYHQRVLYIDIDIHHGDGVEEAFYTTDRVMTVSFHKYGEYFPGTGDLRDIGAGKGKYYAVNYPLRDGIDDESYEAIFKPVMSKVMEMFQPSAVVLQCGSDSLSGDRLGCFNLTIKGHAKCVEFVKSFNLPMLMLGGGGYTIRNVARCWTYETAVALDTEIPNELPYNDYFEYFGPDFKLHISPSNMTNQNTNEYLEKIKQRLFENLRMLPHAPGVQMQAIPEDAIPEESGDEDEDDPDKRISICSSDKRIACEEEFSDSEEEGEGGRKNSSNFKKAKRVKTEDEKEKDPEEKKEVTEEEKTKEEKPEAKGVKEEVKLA
Experimental: (§1) Substrate ([^3H]acetyl-labeled murine erythroleukemia cell-derived histone) was added and the samples were incubated for 20 min at 37° C. in a total volume of 30 μl. The reaction were then stopped and released acetate was extracted and the amount of radioactivity released determined by scintillation counting.
as §1, with “Substrate ([^3H]acetyl-labelled” for “Substrate ([^3H]acetyl-labeled”, “The reactions” for “The reaction”, “and relaesed” for “and released”
as §1, with “([^3H]acetyl-labelled” for “([^3H]acetyl-labeled”, “reactions” for “reaction”
The effect was assayed by incubating the enzyme preparation in the absence of substrate on ice for 20 minutes with the indicated amounts of compound. Substrate([^3H]acetyl-labeled murine erythroleukemia cell-derived histones) was added and the samples were incubated for 20 minutes at 37° C. in a total volume of 30 μl. The reactions were then stopped and released acetate was extracted and the amount of radioactivity released determined by scintillation counting.

[2] = test system: Murine erythroleukemia (MEL) cells; experiment: MEL cell differentiation assay (benzidine assay; cell growth by Coulter Counter); assay type: cell-based; details: for MEL Differentiation % B+ / MEL Differentiation Opt.: Table 1; for MEL Differentiation % B+: benzidine-positive cells at Opt. concentration; for MEL Differentiation Opt.: optimal concentration; for MEL Diff Cells/ml × 10^−5: cell growth
Experimental: (§2) The MEL cell differentiation assay was used to assess the ability of Compound 1 to induce terminal differentiation. MEL cells (logarithmically dividing) were cultured with the indicated concentrations of Compound 1. Following a 5-day culture period, cell growth was determined using a Coulter Counter and differentiation was determined microscopically using the benzidine assay to determine hemoglobin protein accumulation on a per cell basis.
as §2, with “2” for “1”, “2.” for “1.”, “period” for “period, cell growth was determined using a Coulter Counter and”
as §2, with “3” for “1”, “3.” for “1.”, “period” for “period, cell growth was determined using a Coulter Counter and”, “microsdopically” for “microscopically”
as §2, with “4” for “1”, “4.” for “1.”, “period” for “period, cell growth was determined using a Coulter Counter and”
All the compounds which were prepared were tested. […] Table 2 is compiled from experiments similar to the experiments described in Examples 7-10 above.

[3] = target: T1, affinity purified human epitope-tagged (Flag) HDAC1; details: cited from earlier work
[4] = test system: acetylated histones H3 and H4 in peripheral blood mononuclear cells; experiment: Acetylated histones in peripheral blood mononuclear cells of patients under treatment; assay type: in vivo; details: IV infusion daily ×3, FIG. 10
Experimental: FIG. 10. SAHA causes accumulation of acetylation histones H3 and H4 in peripheral blood […] cells in patients. SAHA was administered by IV infusion daily ×3. Samples were isolated before (Pre), following infusion (Post) and 2 hours after infusion.
The in vivo effect of SAHA has been studied using the CWR22 human prostate xenograft in mice (68).

HDAC3 = HDAC3 (Homo sapiens, UniProt O15379); details: cited from earlier work
HDAC3, sequence (O15379 whole entry): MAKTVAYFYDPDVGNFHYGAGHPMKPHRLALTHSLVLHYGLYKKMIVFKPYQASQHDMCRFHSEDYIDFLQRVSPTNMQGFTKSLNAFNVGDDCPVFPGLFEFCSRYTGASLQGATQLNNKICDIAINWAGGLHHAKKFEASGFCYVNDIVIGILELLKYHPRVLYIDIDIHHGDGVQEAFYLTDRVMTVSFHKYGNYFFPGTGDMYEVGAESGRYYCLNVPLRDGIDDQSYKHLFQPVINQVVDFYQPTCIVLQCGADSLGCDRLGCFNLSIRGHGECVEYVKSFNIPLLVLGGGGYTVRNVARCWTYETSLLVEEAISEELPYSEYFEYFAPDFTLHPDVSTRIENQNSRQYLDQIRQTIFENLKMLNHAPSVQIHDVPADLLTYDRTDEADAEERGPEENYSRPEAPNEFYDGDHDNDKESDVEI
HDAC3, sequence (Q9Y618 whole entry, further chain): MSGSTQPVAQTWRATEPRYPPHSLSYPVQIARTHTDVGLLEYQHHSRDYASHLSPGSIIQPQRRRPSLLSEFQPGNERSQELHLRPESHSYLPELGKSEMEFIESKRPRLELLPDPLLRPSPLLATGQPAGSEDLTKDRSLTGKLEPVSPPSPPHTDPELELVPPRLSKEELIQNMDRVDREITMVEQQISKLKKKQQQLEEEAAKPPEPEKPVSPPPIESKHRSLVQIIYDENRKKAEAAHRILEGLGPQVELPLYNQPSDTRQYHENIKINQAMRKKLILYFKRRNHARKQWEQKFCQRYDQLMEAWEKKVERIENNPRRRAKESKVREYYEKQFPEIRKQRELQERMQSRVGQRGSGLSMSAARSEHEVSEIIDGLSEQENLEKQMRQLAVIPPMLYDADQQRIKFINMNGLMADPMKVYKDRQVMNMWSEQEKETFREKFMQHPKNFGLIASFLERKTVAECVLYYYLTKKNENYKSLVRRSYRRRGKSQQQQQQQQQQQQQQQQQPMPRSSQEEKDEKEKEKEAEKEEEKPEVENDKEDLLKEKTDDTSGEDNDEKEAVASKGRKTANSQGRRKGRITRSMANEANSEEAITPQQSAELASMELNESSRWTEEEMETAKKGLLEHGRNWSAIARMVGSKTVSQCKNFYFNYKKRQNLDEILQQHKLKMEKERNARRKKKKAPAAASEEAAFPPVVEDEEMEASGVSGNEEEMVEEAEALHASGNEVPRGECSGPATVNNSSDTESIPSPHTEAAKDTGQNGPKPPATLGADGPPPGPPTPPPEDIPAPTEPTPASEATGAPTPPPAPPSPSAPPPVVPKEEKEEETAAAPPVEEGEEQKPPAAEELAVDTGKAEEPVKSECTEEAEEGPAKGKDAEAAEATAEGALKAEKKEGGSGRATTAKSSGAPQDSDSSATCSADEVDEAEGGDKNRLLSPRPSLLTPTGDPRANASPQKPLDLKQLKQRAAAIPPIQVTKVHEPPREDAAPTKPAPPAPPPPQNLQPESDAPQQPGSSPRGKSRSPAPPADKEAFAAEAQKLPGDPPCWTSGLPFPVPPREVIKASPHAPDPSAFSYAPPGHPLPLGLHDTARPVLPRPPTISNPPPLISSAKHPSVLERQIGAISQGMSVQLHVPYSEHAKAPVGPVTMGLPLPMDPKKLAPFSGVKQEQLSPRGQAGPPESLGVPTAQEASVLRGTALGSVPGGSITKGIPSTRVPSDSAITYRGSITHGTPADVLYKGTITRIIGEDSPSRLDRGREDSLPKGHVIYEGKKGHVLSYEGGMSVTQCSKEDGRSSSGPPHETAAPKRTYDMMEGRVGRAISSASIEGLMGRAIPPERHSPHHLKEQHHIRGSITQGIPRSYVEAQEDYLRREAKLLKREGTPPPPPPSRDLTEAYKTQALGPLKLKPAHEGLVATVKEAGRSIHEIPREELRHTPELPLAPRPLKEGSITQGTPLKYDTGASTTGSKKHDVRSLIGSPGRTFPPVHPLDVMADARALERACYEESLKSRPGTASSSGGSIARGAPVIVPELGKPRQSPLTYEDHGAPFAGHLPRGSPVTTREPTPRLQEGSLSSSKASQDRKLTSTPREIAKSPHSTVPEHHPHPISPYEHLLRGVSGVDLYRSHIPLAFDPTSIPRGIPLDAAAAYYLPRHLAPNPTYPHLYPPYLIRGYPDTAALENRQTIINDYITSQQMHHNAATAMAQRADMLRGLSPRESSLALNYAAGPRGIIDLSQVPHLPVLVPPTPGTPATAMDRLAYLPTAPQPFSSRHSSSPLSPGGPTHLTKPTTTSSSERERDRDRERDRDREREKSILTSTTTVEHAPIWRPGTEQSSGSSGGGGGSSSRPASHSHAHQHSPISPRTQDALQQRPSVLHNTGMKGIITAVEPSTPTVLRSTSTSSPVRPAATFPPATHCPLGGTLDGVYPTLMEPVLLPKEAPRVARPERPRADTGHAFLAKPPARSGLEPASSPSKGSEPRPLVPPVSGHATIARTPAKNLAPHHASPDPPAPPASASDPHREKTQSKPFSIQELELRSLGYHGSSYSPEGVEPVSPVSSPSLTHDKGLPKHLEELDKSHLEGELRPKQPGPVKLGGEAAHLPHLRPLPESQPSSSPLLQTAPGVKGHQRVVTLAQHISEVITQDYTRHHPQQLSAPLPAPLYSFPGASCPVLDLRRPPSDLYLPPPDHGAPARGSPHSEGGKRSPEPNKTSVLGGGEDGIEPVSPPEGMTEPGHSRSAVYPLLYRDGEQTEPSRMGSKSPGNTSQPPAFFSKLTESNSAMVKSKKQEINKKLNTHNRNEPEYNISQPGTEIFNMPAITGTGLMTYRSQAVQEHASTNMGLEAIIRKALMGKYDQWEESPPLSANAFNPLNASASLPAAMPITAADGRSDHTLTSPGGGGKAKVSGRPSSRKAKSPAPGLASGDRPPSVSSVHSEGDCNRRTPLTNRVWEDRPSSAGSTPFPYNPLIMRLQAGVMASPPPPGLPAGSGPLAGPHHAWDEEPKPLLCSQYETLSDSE

[5] = test system: CWR22 human prostate xenograft; details: 50 mg/kg/day
Text: SAHA is currently in Phase I Clinical Trials in patients with solid tumors.

HDAC, sequence (Q13547 whole entry): as the sequence (Q13547 whole entry) above

Structure (SMILES)	IC50 (HDAC; Example 12)	IC50 ([1]; FIGS. 2, 5, 7, read-out: ID50 of HDAC1 enzymatic activity)	IC50 ([1]; Table 1, read-out: HDAC Inhibition ID50)	IC50 ([1]; Table 2, unit nM, read-out: HDAC inh ID50)	concentration able to induce MEL cell differentiation ([2]; FIGS. 1, 3, 4, 6, 5-day culture)	MEL Differentiation % B+ [2]	MEL Differentiation Opt. ([2]; 5-day culture)	MEL Diff % B+ ([2]; Table 2)	MEL Diff Cells/ml × 10^−5 ([2]; Table 2)	IC50 (HDAC)	inhibition of affinity purified HDAC1 [3]	acetylated histones H3 and H4 in peripheral blood mononuclear cells [4]	inhibition of affinity purified HDAC3 (HDAC3)	reduction in mean final tumor volume compared to controls [5]	toxicity [5]	acetylated histones H3 and H4 in the tumor xenograft ([5]; FIG. 9)	optimal dose for the cytodifferentiation of MEL cells ([2]; Example 12)	MEL Diff Opt. ([2]; Table 2, cells printed in μM)
O=C(CCCCC[C@H](NC(=O)OCc1ccccc1)C(=O)Nc1cccc2cccnc12)NO [Compound 4, N-benzyloxycarbonyl-(L)-α-aminosuberoyl-8-quinolinamide-ω-hydroxamic acid]	2.5 nM	< 10 nM	< 10 nM	2.5 nM	40 nM	8%	40 nM	8%	13 Cells/ml × 10^−5	–	–	–	–	–	–	–	–	–
O=C(CCCCCCC(=O)Nc1ccccc1)NO [SAHA, suberoylanilide hydroxamic acid, reference compound]	–	–	–	–	–	68%	2500 nM	68%	3.6 Cells/ml × 10^−5	1000 nM	inhibits	accumulation	inhibits	97%	no .apparent toxicity	increase	2.5 µM	2.5 µM
